Measurements reported in patent US10597388B2, “Pyridazinone herbicides” (FMC CORPORATION, priority 2014, dated 2020).

Legend:
Format in all cases: in vivo
[1] = test system: ryegrass, Italian (Italian ryegrass, Lolium multiflorum); assay: Test A greenhouse herbicide test, pre- and postemergence
Method in brief: (§1)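 Visual injury ratings, 0 (no effect) to 100 (complete control), versus untreated plants after roughly 10 d in a greenhouse. Compounds, formulated in a surfactant-containing non-phytotoxic solvent, were sprayed on loam–sand soil after sowing (pre) or on one- to two-leaf plants 2–10 cm tall (post).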

kochia (Kochia scoparia) = assay: as above
Method in brief: as §1

corn (Zea mays) = assay: as above; details: Postemergence; for Corn plant response rating: 0 to 100 scale, 0 is no effect, 100 is complete control
Method in brief: as §1

[2] = test system: pigweed (Amaranthus retroflexus); assay: as above
Method in brief: as §1

[3] = test system: wheat (Triticum aestivum); assay: as above; details: Postemergence; for Wheat plant response rating: 0 to 100 scale, 0 is no effect, 100 is complete control
Method in brief: as §1

[4] = test system: ragweed (common ragweed, Ambrosia elatior); assay: as above
Method in brief: as §1

[5] = test system: barnyardgrass (Echinochloa crus-galli); assay: as above
Method in brief: as §1

[6] = test system: foxtail, giant (giant foxtail, Setaria faberii); assay: as above
Method in brief: as §1

[7] = test system: sedge, umbrella (small-flower umbrella sedge, Cyperus difformis); assay: Test B flooded paddy test; details: 250 g ai/ha, Flood; visual rating on scale of 0 to 100 where 0 is no effect and 100 is complete control; 13 to 15 d after treatment
Method in brief: (§2)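 Ratings use a 0-100 visual scale, where 100 is complete control, and compare treated plants with controls after 13 to 15 d of greenhouse growth. Compound went straight into paddy water kept 3 cm over the soil surface, applied to seedlings at the 2-leaf stage.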

[8] = test system: ducksalad (Heteranthera limosa); assay: Test B flooded paddy test; details: 250 g ai/ha, Flood; visual rating on scale of 0 to 100 where 0 is no effect and 100 is complete control; 13 to 15 d after treatment
Method in brief: as §2

rice (Oryza sativa) = assay: Test B flooded paddy test; details: 250 g ai/ha, Flood; visual rating on scale of 0 to 100 where 0 is no effect and 100 is complete control; 13 to 15 d after treatment
Method in brief: as §2

[9] = test system: barnyardgrass (Echinochloa crus-galli); assay: Test B flooded paddy test; details: 250 g ai/ha, Flood; visual rating on scale of 0 to 100 where 0 is no effect and 100 is complete control; 13 to 15 d after treatment
Method in brief: as §2

[10] = test system: galium (catchweed bedstraw, Galium aparine); assay: Test A greenhouse herbicide test, postemergence; details: for Galium plant response rating: 0 to 100 scale, 0 is no effect, 100 is complete control
Method in brief: (§3)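 Scores are visual injury ratings from 0 (no effect) to 100 (complete control) versus untreated plants, taken roughly 10 d after treatment in the greenhouse. Treatment was postemergence, on one- to two-leaf plants 2–10 cm high growing in a loam soil/sand mix.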

[11] = test system: blackgrass (Alopecurus myosuroides); assay: Test A greenhouse herbicide test, postemergence; details: for Blackgrass plant response rating: 0 to 100 scale, 0 is no effect, 100 is complete control
Method in brief: as §3

[12] = Postemergence, 1000 g ai/ha, 0 to 100 scale, 0 is no effect, 100 is complete control
[13] = Preemergence, 1000 g ai/ha, 0 to 100 scale, 0 no effect, 100 complete control
[14] = Postemergence, 125 g ai/ha, 0 to 100 scale where 0 is no effect and 100 is complete control
[15] = Postemergence, 500 g ai/ha, 0 to 100 scale, 0 is no effect, 100 is complete control
[16] = Preemergence, 125 g ai/ha, 0 to 100 scale where 0 is no effect and 100 is complete control
[17] = Preemergence, 500 g ai/ha, 0 to 100 scale, 0 no effect, 100 complete control
[18] = 125 g ai/ha, 0 to 100 scale where 0 is no effect and 100 is complete control
[19] = Postemergence, 500 g ai/ha, visual rating after approx. 10 d, 0 to 100 scale (0 no effect, 100 complete control)
[20] = Preemergence, 500 g ai/ha, 0 to 100 scale where 0 is no effect and 100 is complete control
[21] = 500 g ai/ha, visual rating after approx. 10 d, 0 to 100 scale (0 no effect, 100 complete control)

Row | Structure (SMILES) | Plant response rating, Sedge, Umbrella [7] | Plant response rating, Ducksalad [8] | Plant response rating, Rice (rice (Oryza sativa)) | Plant response rating, Barnyardgrass [9] | Plant response rating, Ryegrass, Italian [1, 14] | Ryegrass, Italian plant response rating [1, 16] | Plant response rating, Kochia (kochia (Kochia scoparia); [14]) | Kochia plant response rating (kochia (Kochia scoparia); [16]) | Plant response rating, Corn (corn (Zea mays); [18]) | Plant response rating, Pigweed [2, 14] | Pigweed plant response rating [2, 16] | Plant response rating, Wheat [3, 18] | Plant response rating, Ragweed [4, 14] | Ragweed plant response rating [4, 16] | Plant response rating, Barnyardgrass [5, 14] | Barnyardgrass plant response rating [5, 16] | Plant response rating, Foxtail, Giant [6, 14] | Foxtail, Giant plant response rating [6, 16] | Plant response rating, Galium [10, 18] | Plant response rating, Blackgrass [11, 18] | other results
1 | C#CCOc1c(C)nn(C)c(=O)c1-c1cccc2ccccc12 [Compound 179] | 0 | 0 | 0 | 0 |  |  |  |  |  |  |  |  |  |  |  |  |  |  |  |  | Ryegrass, Italian plant response rating [1, 12]: 70; Plant response rating, Ryegrass, Italian [1, 13]: 30; Kochia plant response rating (kochia (Kochia scoparia); [12]): 10; Plant response rating, Kochia (kochia (Kochia scoparia); [13]): 30; Corn plant response rating (corn (Zea mays); 1000 g ai/ha): 10; Pigweed plant response rating [2, 12]: 0; Plant response rating, Pigweed [2, 13]: 80; Wheat plant response rating ([3]; 1000 g ai/ha): 0; Ragweed plant response rating [4, 12]: 40; Plant response rating, Ragweed [4, 13]: 50; Barnyardgrass plant response rating [5, 12]: 10; Plant response rating, Barnyardgrass [5, 13]: 0; Foxtail, Giant plant response rating [6, 12]: 10; Plant response rating, Foxtail, Giant [6, 13]: 30; Galium plant response rating ([10]; 1000 g ai/ha): 90; Blackgrass plant response rating ([11]; 1000 g ai/ha): 40
2 | COc1ccc2sc(C)c(-c3c(O)c(C)nn(C)c3=O)c2c1 [Compound 53] | 0 | 0 | 0 | 0 | 40 | 10 | 70 | 50 | 0 | 60 | 50 | 0 | 60 | 0 | 0 | 0 | 0 | 50 | 60 | 0 | Ryegrass, Italian plant response rating [1, 15]: 70; Plant response rating, Ryegrass, Italian [1, 17]: 50; Kochia plant response rating (kochia (Kochia scoparia); [15]): 80; Plant response rating, Kochia (kochia (Kochia scoparia); [17]): 70; Corn plant response rating (corn (Zea mays); 500 g ai/ha): 0; Pigweed plant response rating [2, 15]: 70; Plant response rating, Pigweed [2, 17]: 70; Wheat plant response rating ([3]; 500 g ai/ha): 20; Ragweed plant response rating [4, 15]: 70; Plant response rating, Ragweed [4, 17]: 50; Barnyardgrass plant response rating [5, 15]: 20; Plant response rating, Barnyardgrass [5, 17]: 20; Foxtail, Giant plant response rating [6, 15]: 30; Plant response rating, Foxtail, Giant [6, 17]: 50; Galium plant response rating ([10]; 500 g ai/ha): 80; Blackgrass plant response rating ([11]; 500 g ai/ha): 30
3 | Cc1ccc2oc(C)c(-c3c(O)c(C(C)C)nn(C)c3=O)c2c1 [Compound 119] | 0 | 0 | 0 | 0 | 0 | 0 | 0 | 0 | 0 | 0 | 0 | 0 | 0 | 0 | 0 | 0 | 0 | 0 | 0 | 0 | Plant response rating, Ryegrass, Italian [1, 19]: 0; Plant response rating, Ryegrass, Italian [1, 20]: 0; Plant response rating, Kochia (kochia (Kochia scoparia); [19]): 0; Plant response rating, Kochia (kochia (Kochia scoparia); [20]): 0; Plant response rating, Corn (corn (Zea mays); [21]): 0; Plant response rating, Pigweed [2, 19]: 0; Plant response rating, Pigweed [2, 20]: 0; Plant response rating, Wheat [3, 21]: 0; Plant response rating, Ragweed [4, 19]: 0; Plant response rating, Ragweed [4, 20]: 0; Plant response rating, Barnyardgrass [5, 19]: 0; Plant response rating, Barnyardgrass [5, 20]: 0; Plant response rating, Foxtail, Giant [6, 19]: 0; Plant response rating, Foxtail, Giant [6, 20]: 0; Plant response rating, Galium [10, 21]: 0; Plant response rating, Blackgrass [11, 21]: 0
4 | Cc1nn(C)c(=O)c(-c2c(C)n(C)c3ccc(Cl)cc23)c1O [Compound 74] | 0 | 0 | 0 | 0 | 0 | 0 | 30 | 0 | 0 | 40 | 30 | 0 | 0 | 0 | 0 | 0 | 0 | 0 | 10 | 20 | Ryegrass, Italian plant response rating [1, 15]: 0; Plant response rating, Ryegrass, Italian [1, 20]: 0; Kochia plant response rating (kochia (Kochia scoparia); [15]): 30; Plant response rating, Kochia (kochia (Kochia scoparia); [20]): 0; Corn plant response rating (corn (Zea mays); 500 g ai/ha): 0; Pigweed plant response rating [2, 15]: 50; Plant response rating, Pigweed [2, 20]: 50; Wheat plant response rating ([3]; 500 g ai/ha): 0; Ragweed plant response rating [4, 15]: 10; Plant response rating, Ragweed [4, 20]: 0; Barnyardgrass plant response rating [5, 15]: 10; Plant response rating, Barnyardgrass [5, 17]: 0; Foxtail, Giant plant response rating [6, 15]: 20; Plant response rating, Foxtail, Giant [6, 20]: 0; Galium plant response rating ([10]; 500 g ai/ha): 20; Blackgrass plant response rating ([11]; 500 g ai/ha): 40
